# In ChEMBL document CHEMBL1148279, “Effects of bisphosphonates on the growth of Entamoeba histolytica and Plasmodium species in vitro and in vivo” (J Med Chem, 2004):
# What was measured:
# [1] = tested on: Entamoeba histolytica; test: In vitro growth inhibition against Entamoeba histolytica; type: functional, organism-based
# [2] = Therapeutic index was expressed as ratio of LD50 for KB cell line to IC50 against Entamoeba histolytica; type: cell-based; settings: human, KB cells; read-out: TI
# [3] = Therapeutic index was expressed as ratio of LD50 for KB cell line to IC50 against Plasmodium falciparum; type: cell-based; settings: human, KB cells; read-out: TI
# [4] = in vitro; settings: human, KB cells (nasopharyngeal carcinoma)
# Description: Toxicity evaluated against human nasopharyngeal carcinoma KB cell line
# [5] = tested on: Plasmodium falciparum; test: microbe, parasite or virus in culture
# Description: In vitro growth inhibition against Plasmodium falciparum
# [6] = tested on: Cricetinae gen. sp.; test: Percent decrease of amebic liver abscess (mg) formation in Entamoeba histolytica infected hamsters (treated at 10 mg/kg ip once a day for 5 days); type: functional; settings: route intraperitoneal
# [7] = tested on: Cricetinae gen. sp.; test: Percent decrease of normal liver weight (mg) in Entamoeba histolytica infected hamsters (treated at 10 mg/kg ip once a day for 5 days); type: functional, Cricetulus griseus; settings: route intraperitoneal
# [8] = tested on: Cricetinae gen. sp.; test: Mean effect on amebic liver abscess (mg) formation in Entamoeba histolytica infected hamsters (treated at 10 mg/kg ip once a day for 5 days); type: functional, Cricetulus griseus; settings: route intraperitoneal
# [9] = tested on: Cricetinae gen. sp.; test: Mean effect on normal liver weight (mg) in Entamoeba histolytica infected hamsters (treated at 10 mg/kg ip once a day for 5 days); type: functional, Cricetulus griseus; settings: route intraperitoneal
# [10] = Inhibitory activity against Entamoeba histolytica pyrophosphate-dependent phosphofructokinase (PFK); type: functional
# [11] = tested on: Mus musculus; test: Mean reduction in parasitaemia of Plasmodium berghei ANKA suppressive test in mice (Mus musculus) (in vivo) at 25 mg/kg scheduled for 4 days; type: functional
# [12] = Inhibitory activity against Entamoeba histolytica pyrophosphate-dependent phosphofructokinase (PFK) (Range is 600-1200); type: functional
# [13] = tested on: Mus musculus; test: Mean reduction in parasitaemia of Plasmodium berghei ANKA suppressive test in mice (Mus musculus) (in vivo) at 10 mg/kg scheduled for 2 days; type: functional
# [14] = tested on: Plasmodium falciparum; test: Inhibitory activity against Plasmodium falciparum W2
# [15] = tested on: Plasmodium falciparum; test: Inhibitory activity against Plasmodium falciparum 3D7
# [16] = tested on: Plasmodium falciparum; test: Inhibitory activity against Plasmodium falciparum Ghana
# [17] = tested on: Mus musculus; test: Mean reduction in parasitaemia of Plasmodium berghei ANKA suppressive test in mice (Mus musculus) (in vivo) at 10 mg/kg scheduled for 4 days; type: functional
# [18] = Inhibitory activity against Entamoeba histolytica pyrophosphate-dependent phosphofructokinase (PFK) (Range is 2500-3000); type: functional
# [19] = Inhibitory activity against Entamoeba histolytica pyrophosphate-dependent phosphofructokinase (PFK) (Range is 900-1000); type: functional
Structure (SMILES),IC50 [1],selectivity ratio [2],selectivity ratio [3],CC50 [4],IC50 [5],other results
O=P(O)(O)C(Nc1ccc(-c2ccccc2)cc1)P(=O)(O)O,8.76 µM,56.5,6.46,495 µM,76.6 µM,–
CCCCCCCCCCC(O)(P(=O)(O)O)P(=O)(O)O,11 µM,–,–,> 806 µM,5.23 µM,Decrease [6]: 68%; Decrease [7]: 9%; Mean effect [8]: 285 mg; Mean effect [9]: 2163 mg; IC50 [10]: 20 µM
CCCCC(O)(P(=O)(O)O)P(=O)(O)O,> 200 µM,–,> 18.4,> 1040 µM,–,–
CCCCCC(O)(P(=O)(O)O)P(=O)(O)O,157 µM,–,–,> 993 µM,5.53 µM,Reduction [11]: 80%; IC50 [12]: 1200 µM
CN(CCc1ccccc1)CCC(O)(P(=O)(O)O)P(=O)(O)O,143 µM,> 5.2,> 22,> 739 µM,33.5 µM,–
O=P(O)(O)C(Nc1ccc(O)nc1)P(=O)(O)O,96.1 µM,2.67,1.3,257 µM,197 µM,–
CCCCCCCCCCCC(O)(P(=O)(O)O)P(=O)(O)O,63.7 µM,–,–,–,1.07 µM,IC50 [10]: 40 µM
CN(CCOc1ccccc1)CCC(O)(P(=O)(O)O)P(=O)(O)O,6.49 µM,–,–,312 µM,31.4 µM,Decrease [6]: -19%; Decrease [7]: 3%; Mean effect [8]: 1058 mg; Mean effect [9]: 2295 mg
CCCCCCCCCC(O)(P(=O)(O)O)P(=O)(O)O,13.3 µM,–,–,> 775 µM,0.83 µM,Reduction [13]: 75%; IC50 [10]: 70 µM; IC50 [14]: 1 µM; IC50 [15]: 0.83 µM; IC50 [16]: 2 µM
CCCCCC(C)NC(P(=O)(O)O)P(=O)(O)O (stereo not drawn),65.3 µM,> 15.1,> 9.64,> 989 µM,103 µM,–
CN(CCCc1ccccc1)CCC(O)(P(=O)(O)O)P(=O)(O)O,45.1 µM,8.4,16.6,379 µM,22.8 µM,–
CCCCCCC(CCCC)C(O)(P(=O)(O)O)P(=O)(O)O (stereo not drawn),12.4 µM,19.1,–,228 µM,> 200 µM,IC50 [10]: 1000 µM
CCCCCCc1ccc(NC(P(=O)(O)O)P(=O)(O)O)cc1,132 µM,2.83,8.06,373 µM,46.3 µM,–
O=P(O)(O)C(Nc1cc(Br)cc(Br)n1)P(=O)(O)O,28.5 µM,18.2,–,520 µM,> 200 µM,Decrease [6]: 14%; Decrease [7]: -22%; Mean effect [8]: 767 mg; Mean effect [9]: 2883 mg
CCCCCCC(O)(P(=O)(O)O)P(=O)(O)O,29.5 µM,–,–,109 µM,4.34 µM,Reduction [17]: 48%; IC50 [18]: 3000 µM; IC50 [14]: 0.5 µM; IC50 [15]: 4.34 µM; IC50 [16]: 0.5 µM
O=P(O)(O)C(O)(CSc1ccncc1)P(=O)(O)O,> 200 µM,–,> 4.72,> 746 µM,–,–

Structure (SMILES),IC50 [1],selectivity ratio [2],selectivity ratio [3],CC50 [4],IC50 [5],other results
O=P(O)(O)C(Nc1cccc(-c2ccccc2)c1)P(=O)(O)O,6.6 µM,–,–,749 µM,> 200 µM,Decrease [6]: 36%; Decrease [7]: -4%; Mean effect [8]: 570 mg; Mean effect [9]: 2459 mg; IC50 [10]: 90 µM
CCCCCCCCCCCCCC(O)(P(=O)(O)O)P(=O)(O)O,74 µM,0.5,17.4,36.8 µM,2.12 µM,–
CCCCCCCCCCCCCCCC(O)(P(=O)(O)O)P(=O)(O)O,44 µM,> 16.6,> 25.3,> 729 µM,28.8 µM,–
CCCCc1ccc(NC(P(=O)(O)O)P(=O)(O)O)cc1,172 µM,1.62,8.89,278 µM,31.3 µM,–
CN(CCCCc1ccccc1)CCC(O)(P(=O)(O)O)P(=O)(O)O,23.4 µM,–,–,> 690 µM,2.9 µM,Decrease [6]: 89%; Decrease [7]: 26%; Mean effect [8]: 94 mg; Mean effect [9]: 1756 mg
O=P(O)(O)C(O)(Cc1ccccc1)P(=O)(O)O,> 200 µM,–,> 121,> 931 µM,–,Reduction [11]: 64%; IC50 [19]: 1000 µM
CCN(CC)C(P(=O)(O)O)P(=O)(O)O [(DIETHYLAMINO)METHYLENEDIPHOSPHONIC ACID],62.6 µM,12.9,8.98,–,90.1 µM,–
CCCCCCNC(P(=O)(O)O)P(=O)(O)O [(HEXYLAMINO)METHYLENEDIPHOSPHONIC ACID],> 200 µM,–,> 17.1,> 966 µM,56.5 µM,–
CC(C)CCNC(P(=O)(O)O)P(=O)(O)O [(ISOPENTYLAMINO)METHYLENEDIPHOSPHONIC ACID],36.9 µM,13,–,480 µM,> 200 µM,–
CCCCCCCCCNC(P(=O)(O)O)P(=O)(O)O [(NONYLAMINO)METHYLENEDIPHOSPHONIC ACID],136 µM,> 6.76,> 8.18,> 919 µM,112 µM,–
CCCCCCCCNC(P(=O)(O)O)P(=O)(O)O [(OCTYLAMINO)METHYLENEDIPHOSPHONIC ACID],31.1 µM,2.15,5.02,–,13.3 µM,IC50 [10]: > 3000 µM
CCCCCNC(P(=O)(O)O)P(=O)(O)O [(PENTYLAMINO)METHYLENEDIPHOSPHONIC ACID],> 200 µM,–,> 240,> 1150 µM,4.8 µM,–
CCN(CC)CCCC(C)Nc1ccnc2cc(Cl)ccc12 (stereo not drawn) [CHLOROQUINE],–,–,–,–,–,Reduction [17]: 100%
O=P(O)(O)C(N1CCOCC1)P(=O)(O)O [MORPHOLINOMETHYLENEDIPHOSPHONIC ACID],> 200 µM,–,52.4,964 µM,18.4 µM,–
NCCC(O)(P(=O)(O)O)P(=O)(O)O [PAMIDRONIC ACID],> 200 µM,–,–,–,–,Reduction [11]: 5%
O=P(O)(O)C(O)(Cc1cccnc1)P(=O)(O)O [RISEDRONIC ACID],73.5 µM,–,–,–,–,IC50 [10]: > 3000 µM
